Results on 14 molecules are retold here after patent US7842695B2, “Substituted pyrazole compounds” (Merck Patent GmbH, priority 2003, dated 2010).

The experiment addresses 5-HT2A receptors (UniProt P14842). Nature of the experiment: in-vitro affinity to 5-HT2A receptors, [3H]ketanserine displacement (Example A1). Format: binding. From the text:
The 5-HT2A receptors are exposed both to [^3H]ketanserine (a substance known for its affinity to the receptor) and also to the test compound. The decrease in the affinity of [^3H]ketanserine to the receptor is an indication of the affinity of the test substance to the 5-HT2A receptor.
In general, IC50 refers to the concentration needed to halve the response being measured. Low readings indicate inhibition by little substance, high ones a need for much substance. `Fc1ccc(-c2ccc(-n3ncc(CNCCc4ccncc4)c3-c3ccco3)cc2)cc1` [Example 655, [1-(4′-Fluorobiphenyl-4-yl)-5-furan-2-yl-1H-pyrazol-4-ylmethyl]-(2-pyridin-4-ylethyl)amine] registered an IC50 of 67 nM. The figure for `OCCOCCNCc1cnn(-c2ccc(-c3ccc(F)cc3)cc2)c1-c1ccco1` [Example 666, 2-(2-{[1-(4′-Fluorobiphenyl-4-yl)-5-furan-2-yl-1H-pyrazol-4-ylmethyl]amino}ethoxy)ethanol] is 92 nM. In the case of `Fc1ccc(CCN2CCC(NCc3cnn(-c4ccc(-c5ccc(F)cc5)cc4)c3-c3ccco3)C2)cc1` (centres unmarked) [Example 581, [1-(4′-Fluorobiphenyl-4-yl)-5-furan-2-yl-1H-pyrazol-4-ylmethyl]-{1-[2-(4-fluorophenyl)ethyl]pyrrolidin-3-yl}amine], the IC50 was 17 nM.

`CN1CCN(Cc2cnn(-c3ccc(-c4ccc[nH]4)cc3)c2-c2ccccc2F)CC1` [Example 653, 1-{5-(2-Fluorophenyl)-1-[4-(1H-pyrrol-2-yl)phenyl]-1H-pyrazol-4-ylmethyl}-4-methylpiperazine] returned an IC50 of 58 nM. The figure for `O=C1CN(Cc2cnn(-c3ccc(-c4cccc(F)c4)cc3)c2-c2ccco2)CCN1` [Example 645, 4-[1-(3′-Fluorobiphenyl-4-yl)-5-furan-2-yl-1H-pyrazol-4-ylmethyl]piperazin-2-one] is 49 nM.

`Fc1ccc(-c2ccc(-n3ncc(CN4CCN(CCc5ccc(F)cc5F)CC4)c3-c3cccc(Cl)c3)cc2)cc1` [Example 683, 1-[5-(3-Chlorophenyl)-1-(4′-fluorobiphenyl-4-yl)-1H-pyrazol-4-ylmethyl]-4-[2-(2,4-difluorophenyl)ethyl]piperazine] came in with an IC50 of 190 nM.

With `CCN(CC)CCCNCc1cnn(-c2ccc(-c3ccc(F)cc3)cc2)c1-c1ccco1` [Example 609, N,N-Diethyl-N′-[1-(4′-fluorobiphenyl-4-yl)-5-furan-2-yl-1H-pyrazol-4-ylmethyl]propane-1,3-diamine], the IC50 came to 29 nM. The result for `CCN(C)Cc1cnn(-c2ccc(-c3ccc(F)cc3)cc2)c1-c1c(C)noc1C` [Example 597, [5-(3,5-Dimethylisoxazol-4-yl)-1-(4′-fluorobiphenyl-4-yl)-1H-pyrazol-4-ylmethyl]ethylmethylamine] reads 23 nM; that for `OCCCNCc1cnn(-c2ccc(-c3ccc(F)cc3)cc2)c1-c1ccco1` [Example 668, 3-{[1-(4′-Fluorobiphenyl-4-yl)-5-furan-2-yl-1H-pyrazol-4-ylmethyl]amino}propan-1-ol], 94 nM. The result for `OCC(O)CNCc1cnn(-c2ccc(-c3ccc(F)cc3)cc2)c1-c1ccco1` (centres unmarked) [Example 680, 3-{[1-(4′-Fluorobiphenyl-4-yl)-5-furan-2-yl-1H-pyrazol-4-ylmethyl]amino}propane-1,2-diol] reads 170 nM; that for `Cc1nn(-c2ccccc2)c(C)c1CN1CCN(C(=O)[C@]2(C)CC[C@@H](C(=O)O)C2(C)C)CC1` [Example 687], 210 nM; that for `CN1CCC(N(C)Cc2cnn(-c3ccc(-c4ccc(F)cc4)cc3)c2-c2ccco2)C1` (centres unmarked) [Example 575, [1-(4′-Fluorobiphenyl-4-yl)-5-furan-2-yl-1H-pyrazol-4-ylmethyl]methyl-(1-methyl-3-pyrrolidinyl)amine], 14.7 nM. Turning to `CN1CCN(Cc2cnn(-c3ccc(-c4ccc(C#N)s4)cc3)c2-c2ccccc2F)CC1` [Example 649, 5-{4-[5-(2-Fluorophenyl)-4-(4-methylpiperazin-1-ylmethyl)pyrazol-1-yl]phenyl}thiophene-2-carbonitrile], the IC50 was determined as 54 nM. The result for `COc1ccc(-c2ccc(-n3ncc(CNCc4cc[nH]n4)c3-c3ccco3)cc2)cc1` [Example 656, [5-Furan-2-yl-1-(4′-methoxybiphenyl-4-yl)-1H-pyrazol-4-ylmethyl]-(1H-pyrazol-3-ylmethyl)amine] reads 71 nM.
